Legend:
Assay in all cases: B2 Post-Emergence Efficacy - Test 2
Assay type in all cases: in vivo
[1] = test system: Alopecurus myosuroides (ALOMY); conditions: 15 days after application, 0-100 scale
Method in brief: (§1)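 Pots of plants grown 12 days in a glasshouse (24/18 or 20/16 °C day/night, 16 h light, 65% humidity) were sprayed post-emergence with aqueous IF50-formulated compound plus 0.2% v/v Genapol X080. Damage scored 15 days after application on a 0–100 scale (0 = no damage, 100 = total kill).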

[2] = test system: Amaranthus retroflexus (AMARE); conditions: 15 days after application, 0-100 scale
Method in brief: as §1

[3] = test system: Avena fatua (AVEFA); conditions: 15 days after application, 0-100 scale
Method in brief: as §1

[4] = test system: Beta vulgaris (BEAVA); conditions: 15 days after application, 0-100 scale
Method in brief: as §1

[5] = test system: Brassica napus (BRSNN); conditions: 15 days after application, 0-100 scale
Method in brief: as §1

[6] = test system: Bromus tectorum (BROTE); conditions: 15 days after application, 0-100 scale
Method in brief: as §1

[7] = test system: Chenopodium album (CHEAL); conditions: 15 days after application, 0-100 scale
Method in brief: as §1

[8] = test system: Echinochloa crus galli (ECHCG); conditions: 15 days after application, 0=no damage, 100=total kill
Method in brief: as §1

[9] = test system: Eleisine indica (ELEIN); conditions: 15 days after application, 0=no damage, 100=total kill
Method in brief: as §1

[10] = test system: Euphorbia hetrophylla (EPHHL); conditions: 15 days after application, 0-100 scale
Method in brief: as §1

[11] = test system: Glycine max (GLXMA); conditions: 15 days after application; for Herbicidal activity GLXMA: 0-100 scale; for Herbicidal activity on a 0-100 scale, GLXMA: 0=no damage, 100=total kill
Method in brief: as §1

[12] = test system: Ipomoea hederacea (IPOHE); conditions: 15 days after application, 0-100 scale
Method in brief: as §1

[13] = test system: Panicum miliaceum (PANMI); conditions: 15 days after application, 0=no damage, 100=total kill
Method in brief: as §1

[14] = test system: Sida spinosa (SIDSP); conditions: 15 days after application, 0-100 scale
Method in brief: as §1

[15] = test system: Sorghum bicolour (SORVU); conditions: 15 days after application, 0=no damage, 100=total kill
Method in brief: as §1

[16] = test system: Stellaria media (STEME); conditions: 15 days after application, 0-100 scale
Method in brief: as §1

[17] = test system: Veronica persica (VERPE); conditions: 15 days after application, 0-100 scale
Method in brief: as §1

[18] = test system: Xanthium strumarium (XANST); conditions: 15 days after application, 0-100 scale
Method in brief: as §1

SMILES: Cc1nn(C)c(=O)c(-c2c(F)ccc(Cl)c2CCc2ccc(F)cc2)c1O [Compound 1.048, 4-[3-chloro-6-fluoro-2-[2-(4-fluorophenyl)ethyl]phenyl]-5-hydroxy-2,6-dimethyl-pyridazin-3-one]
- Herbicidal activity ALOMY ([1]; 15 g/Ha): 20
- Herbicidal activity ALOMY ([1]; 30 g/Ha): 30
- Herbicidal activity ALOMY ([1]; 60 g/Ha): 70
- Herbicidal activity ALOMY ([1]; 125 g/Ha): 80
- Herbicidal activity ALOMY ([1]; 250 g/Ha): 80
- Herbicidal activity ALOMY ([1]; 500 g/Ha): 90
- Herbicidal activity AMARE ([2]; 15 g/Ha): 60
- Herbicidal activity AMARE ([2]; 30 g/Ha): 80
- Herbicidal activity AMARE ([2]; 60 g/Ha): 90
- Herbicidal activity AMARE ([2]; 125 g/Ha): 90
- Herbicidal activity AMARE ([2]; 250 g/Ha): 100
- Herbicidal activity AMARE ([2]; 500 g/Ha): 100
- Herbicidal activity AVEFA ([3]; 15 g/Ha): 10
- Herbicidal activity AVEFA ([3]; 30 g/Ha): 30
- Herbicidal activity AVEFA ([3]; 60 g/Ha): 60
- Herbicidal activity AVEFA ([3]; 125 g/Ha): 80
- Herbicidal activity AVEFA ([3]; 250 g/Ha): 90
- Herbicidal activity AVEFA ([3]; 500 g/Ha): 90
- Herbicidal activity BEAVA ([4]; 15 g/Ha): 70
- Herbicidal activity BEAVA ([4]; 30 g/Ha): 80
- Herbicidal activity BEAVA ([4]; 60 g/Ha): 80
- Herbicidal activity BEAVA ([4]; 125 g/Ha): 90
- Herbicidal activity BEAVA ([4]; 250 g/Ha): 90
- Herbicidal activity BEAVA ([4]; 500 g/Ha): 90
- Herbicidal activity BRSNN ([5]; 15 g/Ha): 90
- Herbicidal activity BRSNN ([5]; 30 g/Ha): 90
- Herbicidal activity BRSNN ([5]; 60 g/Ha): 90
- Herbicidal activity BRSNN ([5]; 125 g/Ha): 90
- Herbicidal activity BRSNN ([5]; 250 g/Ha): 90
- Herbicidal activity BRSNN ([5]; 500 g/Ha): 90
- Herbicidal activity BROTE ([6]; 15 g/Ha): 0
- Herbicidal activity BROTE ([6]; 30 g/Ha): 10
- Herbicidal activity BROTE ([6]; 60 g/Ha): 20
- Herbicidal activity BROTE ([6]; 125 g/Ha): 50
- Herbicidal activity BROTE ([6]; 250 g/Ha): 60
- Herbicidal activity BROTE ([6]; 500 g/Ha): 70
- Herbicidal activity CHEAL ([7]; 125 g/Ha): 70
- Herbicidal activity CHEAL ([7]; 250 g/Ha): 90
- Herbicidal activity CHEAL ([7]; 500 g/Ha): 100
- Herbicidal activity on a 0-100 scale, ECHCG ([8]; 15 g/Ha): 60
- Herbicidal activity on a 0-100 scale, ECHCG ([8]; 30 g/Ha): 80
- Herbicidal activity on a 0-100 scale, ECHCG ([8]; 60 g/Ha): 80
- Herbicidal activity on a 0-100 scale, ECHCG ([8]; 125 g/Ha): 90
- Herbicidal activity on a 0-100 scale, ECHCG ([8]; 250 g/Ha): 90
- Herbicidal activity on a 0-100 scale, ECHCG ([8]; 500 g/Ha): 100
- Herbicidal activity on a 0-100 scale, ELEIN ([9]; 15 g/Ha): 0
- Herbicidal activity on a 0-100 scale, ELEIN ([9]; 30 g/Ha): 50
- Herbicidal activity on a 0-100 scale, ELEIN ([9]; 60 g/Ha): 60
- Herbicidal activity on a 0-100 scale, ELEIN ([9]; 125 g/Ha): 60
- Herbicidal activity on a 0-100 scale, ELEIN ([9]; 250 g/Ha): 80
- Herbicidal activity on a 0-100 scale, ELEIN ([9]; 500 g/Ha): 80
- Herbicidal activity EPHHL ([10]; 15 g/Ha): 50
- Herbicidal activity EPHHL ([10]; 30 g/Ha): 70
- Herbicidal activity EPHHL ([10]; 60 g/Ha): 90
- Herbicidal activity EPHHL ([10]; 125 g/Ha): 90
- Herbicidal activity EPHHL ([10]; 250 g/Ha): 100
- Herbicidal activity EPHHL ([10]; 500 g/Ha): 100
- Herbicidal activity GLXMA ([11]; 15 g/Ha): 70
- Herbicidal activity on a 0-100 scale, GLXMA ([11]; 15 g/Ha): 70
- Herbicidal activity GLXMA ([11]; 30 g/Ha): 80
- Herbicidal activity on a 0-100 scale, GLXMA ([11]; 30 g/Ha): 80
- Herbicidal activity GLXMA ([11]; 60 g/Ha): 90
- Herbicidal activity on a 0-100 scale, GLXMA ([11]; 60 g/Ha): 90
- Herbicidal activity GLXMA ([11]; 125 g/Ha): 90
- Herbicidal activity on a 0-100 scale, GLXMA ([11]; 125 g/Ha): 90
- Herbicidal activity GLXMA ([11]; 250 g/Ha): 90
- Herbicidal activity on a 0-100 scale, GLXMA ([11]; 250 g/Ha): 90
- Herbicidal activity GLXMA ([11]; 500 g/Ha): 100
- Herbicidal activity on a 0-100 scale, GLXMA ([11]; 500 g/Ha): 100
- Herbicidal activity IPOHE ([12]; 15 g/Ha): 70
- Herbicidal activity IPOHE ([12]; 30 g/Ha): 80
- Herbicidal activity IPOHE ([12]; 60 g/Ha): 100
- Herbicidal activity IPOHE ([12]; 125 g/Ha): 100
- Herbicidal activity IPOHE ([12]; 250 g/Ha): 100
- Herbicidal activity IPOHE ([12]; 500 g/Ha): 100
- Herbicidal activity on a 0-100 scale, PANMI ([13]; 15 g/Ha): 0
- Herbicidal activity on a 0-100 scale, PANMI ([13]; 30 g/Ha): 20
- Herbicidal activity on a 0-100 scale, PANMI ([13]; 60 g/Ha): 30
- Herbicidal activity on a 0-100 scale, PANMI ([13]; 125 g/Ha): 80
- Herbicidal activity on a 0-100 scale, PANMI ([13]; 250 g/Ha): 100
- Herbicidal activity on a 0-100 scale, PANMI ([13]; 500 g/Ha): 100
- Herbicidal activity SIDSP ([14]; 15 g/Ha): 80
- Herbicidal activity SIDSP ([14]; 30 g/Ha): 80
- Herbicidal activity SIDSP ([14]; 60 g/Ha): 80
- Herbicidal activity SIDSP ([14]; 125 g/Ha): 90
- Herbicidal activity SIDSP ([14]; 250 g/Ha): 90
- Herbicidal activity SIDSP ([14]; 500 g/Ha): 90
- Herbicidal activity on a 0-100 scale, SORVU ([15]; 15 g/Ha): 0
- Herbicidal activity on a 0-100 scale, SORVU ([15]; 30 g/Ha): 30
- Herbicidal activity on a 0-100 scale, SORVU ([15]; 60 g/Ha): 70
- Herbicidal activity on a 0-100 scale, SORVU ([15]; 125 g/Ha): 70
- Herbicidal activity on a 0-100 scale, SORVU ([15]; 250 g/Ha): 80
- Herbicidal activity on a 0-100 scale, SORVU ([15]; 500 g/Ha): 90
- Herbicidal activity STEME ([16]; 15 g/Ha): 90
- Herbicidal activity STEME ([16]; 30 g/Ha): 90
- Herbicidal activity STEME ([16]; 60 g/Ha): 90
- Herbicidal activity STEME ([16]; 125 g/Ha): 100
- Herbicidal activity STEME ([16]; 250 g/Ha): 100
- Herbicidal activity STEME ([16]; 500 g/Ha): 100
- Herbicidal activity VERPE ([17]; 15 g/Ha): 60
- Herbicidal activity VERPE ([17]; 30 g/Ha): 80
- Herbicidal activity VERPE ([17]; 60 g/Ha): 90
- Herbicidal activity VERPE ([17]; 125 g/Ha): 80
- Herbicidal activity VERPE ([17]; 250 g/Ha): 100
- Herbicidal activity VERPE ([17]; 500 g/Ha): 100
- Herbicidal activity XANST ([18]; 60 g/Ha): 90
- Herbicidal activity XANST ([18]; 125 g/Ha): 90
- Herbicidal activity XANST ([18]; 250 g/Ha): 90
- Herbicidal activity XANST ([18]; 500 g/Ha): 100
